Read-outs that look alike come from different tables or passages of the source.
What was measured:
[1] = test system: murine mesangial derived MES13 cells; test: Protective effect against oxidized LDL-induced injury of murine mesangial cells (in vitro); type: cell-based; conditions: Mus musculus, MES13, 10 h, mean ± standard deviation, read-out: Cytoprotection rate (%)
Description: For the purpose of evaluating in vitro cytoprotective effect of the compounds of the present invention on mesangial cells, a cytoprotective study was performed using murine mesangial derived MES13 cells (ATCC-CRL-1927) injured by oxidized LDL.
Oxidized LDL was prepared in the same manner as in Test example 1. Cell culture was carried out by plating 2.5×10^4 cells/250 μl/well on a 48-well plate using FBS-free medium (mixture of DME medium and F12 medium in a ratio of 3:1). Test compounds were dissolved or suspended in ethanol and added to the wells in an amount of 1.25 μl/well to a concentration of 1 or 10 μM in each well. After 16 hours or immediately after the addition of the compounds, oxidized LDL was added to cells in an amount of 25 μl/well to a concentration of 91 μg/ml and the cells were cultured for 10 hours after addition of the oxidized LDL. Then, 150 μl/well of the culture medium were collected and measured for the lactate dehydrogenase level (LDL: SIGMA DIAGNOSTICS) having leaked in the medium.
The magnitude of cytoprotective effect was expressed as the cytoprotection rate which was determined by calculating the data assuming that the magnitude in wells containing oxidized LDL is 0% and that the magnitude in containing saline is 100%.

[2] = test system: ischemic acute renal failure model; test: Ischemic acute renal failure model, renal ischemia 30 minutes (in vivo); parameters: species or system rat (male SD rats); conditions: 200 mg/kg oral once a day
Description: Effect of a compound of the present invention on an in vivo renal disease was studied using an ischemic acute renal failure model.
An ischemic acute renal failure model was prepared from in groups of 8 each rats (male SD rats, weight: 224-285 g) fed with high-fat diet. High-fat diet feeding was started by free access to high-fat diet (cholesterol level 1.25%) from 7 or 8 days prior to unilateral nephrectomy and left renal artery clamping. The test compound was administered as a solution in soybean oil via oral route (4 ml/kg). Control group was orally administered soybean oil alone. The administration of compound was started from 4 or 5 days before the ischemic treatment at a dose of 200 mg/kg once a day. After the ischemia treatment, the oral administration of the compound was continued at a frequency of once a day. The ischemic treatment was performed by removing the right kidney and clipping a renal artery of the left kidney for 30 or 60 minutes.
Renal functions after ischemic treatment were determined by using urine and blood samples daily collected. Urine volume and the creatinine level of serum and urine were evaluated to calculate creatinine clearance as an indication of renal functions. Influences of high-fat diet feeding were monitored by measuring serum cholesterol level.

[3] = compound added 16 hours before adding oxidized LDL
[4] = compound added immediately before adding oxidized LDL

CCCCCC1(CCCCC)Cc2c(cc(C(C)(C)C)c(O)c2C(C)(C)C)O1 [Example 36, 4,6-Di-t-butyl-2,2-di-n-pentyl-5-hydroxy-2,3-dihydrobenzofuran]
inhibition at 1 µM [1, 3]: 9.7 ± 1.8% | inhibition at 1 µM [1, 4]: 2.7 ± 0.7% | inhibition at 10 µM [1, 3]: 43.5 ± 0.5% | inhibition at 10 µM [1, 4]: 40 ± 3.5% | Creatinine ([2]; 1 day after ischemia (30 minutes), control 1.73 ± 0.73, P < 0.05): 1.06 ± 0.24 mg/dL | Creatinine clearance ([2]; 1 day after ischemia (30 minutes), control 632 ± 167, P < 0.05): 934 ± 253 mL/day | Creatinine ([2]; 2 days after ischemia (30 minutes), control 1.84 ± 1.40): 0.96 ± 0.23 mg/dL | Creatinine clearance ([2]; 2 days after ischemia (30 minutes), control 678 ± 277, P < 0.05): 1095 ± 325 mL/day | Creatinine ([2]; 3 days after ischemia (30 minutes), control 2.19 ± 2.34): 1.05 ± 0.26 mg/dL

Source: US6133279A, “Therapeutic agents for renal diseases and organ preservatives” (Chugai Seiyaku Kabushiki Kaisha, priority 1996, dated 2000)
